Test results as given in patent US20260015365A1, “PRODRUGS OF SOMATOSTATIN RECEPTORS SUBTYPE 4 (SSTR4) AGONISTS AND THEIR APPLICATIONS” (Humanwell Pharmaceutical US, Inc., priority 2024, published 2026).

Assay: Pharmacokinetics in SD rats after intravenous injection and single oral gavage, plasma LC-MS/MS
Assay type: in vivo
Conditions: male, rat
Experimental: SD rats (male, 6-8 weeks old, from JH Laboratory Animal Co., Ltd.) were used for intravenous injection and single oral gavage administration. Plasma samples were collected at 0.083, 0.25, 0.5, 1, 2, 4, 8, and 24 hours post-dose.
The plasma samples were obtained by centrifugation (2000 rpm, 4° C., 5 min). Samples were added to a 96-well plate and mixed with 10 volumes of acetonitrile containing an internal standard. After mixing and shaking, the mixture was centrifuged (5800 rpm, 4° C., 10 min), and the supernatant was transferred to a new 96-well plate.
The resulting solution was injected into the LC-MS/MS system. Drug concentrations in plasma were quantified using the LC-MS/MS method, and pharmacokinetic parameters were calculated accordingly.

CC(C)(NC(=O)[C@H]1[C@@H]2CNC[C@H]1C2)c1ncc2c(Br)cccn12 [compound 1]
AUC(0-inf) (IV, 1 mg/kg): 370 ng·h/mL | AUC(0-t) (IV, 1 mg/kg): 361 ng·h/mL | MRT inf (IV, 1 mg/kg): 0.879 h | clearance (IV, 1 mg/kg): 45.2 mL/min/kg | half-life (IV, 1 mg/kg): 0.814 h | Vd (IV, 1 mg/kg, read-out: Vss): 2.38 L/kg | Cmax (PO, 3 mg/kg): 36.3 ng/mL | Tmax (PO, 3 mg/kg): 1.42 h | half-life (PO, 3 mg/kg): 2.43 h
